In ChEMBL document CHEMBL3739399, “Discovery of Indazole Derivatives as a Novel Class of Bacterial Gyrase B Inhibitors” (ACS Med Chem Lett, 2015):
≈ marks a conversion by molar mass, not a printed value.

Columns and labels:
[1] = tested on: Staphylococcus aureus; assay: Antibacterial activity against Staphylococcus aureus 1118 infected in sc and iv dosed mouse assessed as septicemia compound administered 1 hr post-infection twice for 1 day measured for 7 days; format: functional; details: read-out: PD50
[2] = target: DNA gyrase subunit B (Staphylococcus aureus, UniProt P0A0K8); assay: Inhibition of Staphylococcus aureus Gyrase B ATPase activity by fluorescence analysis
[3] = Inhibition of Staphylococcus aureus topoisomerase 4 by fluorescence analysis
[4] = tested on: Staphylococcus aureus; assay: Antibacterial activity against methicillin-sensitive Staphylococcus aureus 42 for 18 to 20 hrs by broth microdilution method; format: functional
[5] = tested on: Staphylococcus aureus; assay: Antibacterial activity against methicillin-resistant Staphylococcus aureus 1118 for 18 to 20 hrs by broth microdilution method; format: functional
[6] = tested on: Staphylococcus aureus; assay: Antibacterial activity against methicillin and ciprofloxacin-resistant Staphylococcus aureus 1721 for 18 to 20 hrs by broth microdilution method; format: functional
[7] = tested on: Streptococcus pneumoniae; assay: Antibacterial activity against Streptococcus pneumoniae for 18 to 24 hrs by broth microdilution method; format: functional
[8] = tested on: Enterococcus faecium; assay: Antibacterial activity against Enterococcus faecium for 18 to 20 hrs by broth microdilution method; format: functional
[9] = tested on: Enterococcus faecalis; assay: Antibacterial activity against Enterococcus faecalis for 18 to 20 hrs by broth microdilution method; format: functional
[10] = tested on: Streptococcus pneumoniae; assay: Antibacterial activity against Streptococcus pneumoniae 402 infected in sc dosed mouse assessed as reduction in 2 log CFU in lung compound administered as BID for 1 day measured 24 hrs after last dose; format: functional
[11] = tested on: Streptococcus pneumoniae; assay: Antibacterial activity against Streptococcus pneumoniae 402 infected in sc dosed mouse assessed as reduction in 3 log CFU in lung compound administered as BID for 1 day measured 24 hrs after last dose; format: functional
[12] = tested on: Mus musculus; assay: Dose-normalized AUC in mouse at 2 mg/kg, iv by LC-MS/MS analysis; format: ADME, organism-based; details: in vivo
[13] = Volume of distribution at steady state in mouse at 2 mg/kg, iv by LC-MS/MS analysis; format: ADME, organism-based; details: in vivo, read-out: Vdss
[14] = Half-life in mouse at 2 mg/kg, iv by LC-MS/MS analysis; format: ADME, organism-based; details: in vivo
[15] = Clearance in mouse at 2 mg/kg, iv by LC-MS/MS analysis; format: ADME, organism-based; details: in vivo
[16] = Log D of compound at pH 7.4; details: buffer

Chain of DNA gyrase subunit B (P0A0K8 whole entry): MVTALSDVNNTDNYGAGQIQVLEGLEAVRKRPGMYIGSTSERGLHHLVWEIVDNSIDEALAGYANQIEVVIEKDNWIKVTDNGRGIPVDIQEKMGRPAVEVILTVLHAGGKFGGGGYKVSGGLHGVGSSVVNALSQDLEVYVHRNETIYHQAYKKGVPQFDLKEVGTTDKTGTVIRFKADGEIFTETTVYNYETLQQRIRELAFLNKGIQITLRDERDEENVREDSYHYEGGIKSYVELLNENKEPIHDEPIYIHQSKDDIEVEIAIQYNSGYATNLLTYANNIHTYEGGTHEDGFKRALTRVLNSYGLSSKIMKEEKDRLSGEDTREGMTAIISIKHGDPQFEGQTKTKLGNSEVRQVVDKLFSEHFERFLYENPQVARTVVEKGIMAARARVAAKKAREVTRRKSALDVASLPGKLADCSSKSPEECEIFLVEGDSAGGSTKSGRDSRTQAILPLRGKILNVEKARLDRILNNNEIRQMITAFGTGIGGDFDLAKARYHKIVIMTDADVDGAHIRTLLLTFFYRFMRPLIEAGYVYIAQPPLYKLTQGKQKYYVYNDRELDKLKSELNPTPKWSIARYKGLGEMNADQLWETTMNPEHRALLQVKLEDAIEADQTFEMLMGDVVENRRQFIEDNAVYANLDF

Structure (SMILES) | ED50 [1] [mg/kg] | IC50 [2] [nM] | IC50 [3] [nM] | MIC [4] [µg/mL] | MIC [5] [µg/mL] | MIC [6] [µg/mL] | MIC [7] [µg/mL] | MIC [8] [µg/mL] | MIC [9] [µg/mL] | ED [10] [mg/kg] | ED [11] [mg/kg] | AUC/dose [12] [µg·h/mL/mg/kg] | Vd [13] [L/kg] | half-life [14] [h] | clearance [15] [mL/min/kg] | logD [16]
CCCc1cccc2c(-c3cnc(-c4ccc(C(=O)O)nc4)s3)n[nH]c12 | 1 | 10 | 56 | 0.06 (≈ 0.165 µM) | 0.06 (≈ 0.165 µM) | 0.06 (≈ 0.165 µM) | 0.06 (≈ 0.165 µM) | 0.06 (≈ 0.165 µM) | 0.03 (≈ 0.0823 µM) | >25 | >25 | 0.159 | 3.47 | 2.1 | 105 | 1.7
CCCc1cccc2c(-c3cnc(-c4cnc(C(=O)O)c(OC)c4)s3)n[nH]c12 | – | 14 | 115 | 1 (≈ 2.54 µM) | 1 (≈ 2.54 µM) | > 8 | 1 (≈ 2.54 µM) | 4 (≈ 10.1 µM) | 2 (≈ 5.07 µM) | – | – | – | – | – | – | –
C=CCc1cccc2c(-c3cnc(-c4ccc(C(=O)O)nc4)s3)n[nH]c12 | – | 9 | – | 0.03 (≈ 0.0828 µM) | 0.03 (≈ 0.0828 µM) | 0.06 (≈ 0.166 µM) | 0.25 (≈ 0.69 µM) | 0.125 (≈ 0.345 µM) | 0.125 (≈ 0.345 µM) | – | – | – | – | – | – | –
CCCc1cccc2c(-c3cnc(-c4ccc(CC(=O)O)nc4)s3)n[nH]c12 | – | 25 | 434 | 0.25 (≈ 0.661 µM) | 0.25 (≈ 0.661 µM) | 0.25 (≈ 0.661 µM) | 0.5 (≈ 1.32 µM) | 4 (≈ 10.6 µM) | 0.5 (≈ 1.32 µM) | – | – | – | – | – | – | –
CCCn1c(=O)ccc2c(-c3cnc(-c4ccc(C(=O)O)nc4)s3)n[nH]c21 | – | < 8 | 56 | > 32 | – | – | 0.06 (≈ 0.157 µM) | – | – | – | – | – | – | – | – | 0.9
CCCc1cccc2c(-c3cnc(-c4cnc(C(=O)O)cc4C)s3)n[nH]c12 | – | 12 | 60 | 0.02 (≈ 0.0528 µM) | 0.02 (≈ 0.0528 µM) | 0.03 (≈ 0.0793 µM) | 0.125 (≈ 0.33 µM) | 0.013 (≈ 0.0344 µM) | 0.06 (≈ 0.159 µM) | – | – | – | – | – | – | –
CCCc1cccc2c(-c3cnc(-c4ccc(C(=O)O)c(=O)[nH]4)s3)n[nH]c12 | – | 168 | – | > 8 | > 8 | > 8 | > 8 | > 8 | > 8 | – | – | – | – | – | – | –
CCCOc1nccc2c(-c3cnc(-c4cnc(C(=O)O)cc4C)s3)n[nH]c12 | – | 52 | – | 8 (≈ 20.2 µM) | 8 (≈ 20.2 µM) | 8 (≈ 20.2 µM) | 0.125 (≈ 0.316 µM) | 8 (≈ 20.2 µM) | 4 (≈ 10.1 µM) | – | – | – | – | – | – | –
CCCc1c(O)ccc2c(-c3cnc(-c4cnc(C(=O)O)cc4C)s3)n[nH]c12 | – | 8 | – | 0.125 (≈ 0.317 µM) | 0.125 (≈ 0.317 µM) | 0.125 (≈ 0.317 µM) | 0.06 (≈ 0.152 µM) | 0.25 (≈ 0.634 µM) | 0.06 (≈ 0.152 µM) | – | – | – | – | – | – | –
O=C(O)c1ccc(-c2ncc(-c3n[nH]c4c(CC5CC5)cccc34)s2)cn1 | – | 13 | – | 0.05 (≈ 0.133 µM) | 0.05 (≈ 0.133 µM) | 0.1 (≈ 0.266 µM) | 0.5 (≈ 1.33 µM) | 4 (≈ 10.6 µM) | 0.125 (≈ 0.332 µM) | – | – | – | – | – | – | –
CCCOc1nccc2c(-c3cnc(-c4ccc(COP(=O)([O-])[O-])nc4)s3)n[nH]c12.[Na+].[Na+] | – | < 8 | – | 8 | 8 | > 8 | 1 | 8 | > 8 | – | – | – | – | – | – | –
CCCc1c(O)ccc2c(-c3cnc(-c4ccc(C(=O)O)c(F)c4)s3)n[nH]c12 | – | 11 | – | 0.125 (≈ 0.315 µM) | 0.25 (≈ 0.629 µM) | 0.25 (≈ 0.629 µM) | 0.06 (≈ 0.151 µM) | 0.02 (≈ 0.0503 µM) | 0.02 (≈ 0.0503 µM) | – | – | – | – | – | – | –
CCCc1cccc2c(-c3cnc(-c4ccc(C(=O)O)cn4)s3)n[nH]c12 | – | 49 | 9900 | 8 (≈ 22 µM) | > 8 | > 8 | 8 (≈ 22 µM) | 4 (≈ 11 µM) | 8 (≈ 22 µM) | – | – | – | – | – | – | –
CCCc1cccc2c(-c3cnc(-c4ccc(C(=O)O)c(F)c4)s3)n[nH]c12 | – | < 8 | 1300 | 0.125 (≈ 0.328 µM) | 0.125 (≈ 0.328 µM) | 0.125 (≈ 0.328 µM) | 0.25 (≈ 0.655 µM) | 0.06 (≈ 0.157 µM) | 0.06 (≈ 0.157 µM) | 63 | 97.6 | 0.397 | 1.7 | 2 | 42 | –
COc1c(N2C[C@@H]3CCCN[C@@H]3C2)c(F)cc2c(=O)c(C(=O)O)cn(C3CC3)c12 [MOXIFLOXACIN] | – | – | – | – | – | – | 0.06 (≈ 0.149 µM) | – | – | 28.6 | 50.8 | – | – | – | – | –
CO[C@@H]1[C@@H](OC(N)=O)[C@@H](O)[C@H](Oc2ccc3c(O)c(NC(=O)c4ccc(O)c(CC=C(C)C)c4)c(=O)oc3c2C)OC1(C)C [NOVOBIOCIN] | 10 | – | – | – | 0.125 (≈ 0.204 µM) | – | 2 (≈ 3.26 µM) | – | – | >100 | >100 | – | – | – | – | –
